The results in this text go back to patent US20190183138A1, “MILK COAGULANT AND METHOD FOR PRODUCING CHEESE” (CHINA AGRICULTURAL UNIVERSITY, priority 2017, published 2019).

In series [1] the test system is C. otophyllum protease QA. The class given is biochemical, Cynanchum otophyllum Schneid. The note with it: inhibitor 8 mmol/L, 37° C., 30 min. As for the experimental part:
(§1) The caseinolytic activities of the C. otophyllum proteases were determined using a method modified from Mohanty et al. (2003). The substrate was prepared by dissolving 1% (wt/vol) of whole casein in 10 mmol/L of citric acidphosphate buffer (pH 6.5). The assay was performed by incubating 1.1 mL of substrate with 0.1 mL of partially purified protease extracted solution under 37° C. for 30 min and terminated using 1.8 mL of 5% (wt/vol) trichloroacetic acid (TCA). The blank control was prepared by adding the same amount of TCA to the protease extracted solution, then adding the substrate. After 30 min standing at room temperature, the completely precipitated proteins were removed by centrifuging at 5,000 × g for 20 min at room temperature. The protein content in the supernatant was then measured at 280 nm (UV-2102 PC, Unico Instrument Co. Ltd.). One unit of PA was defined as the amount of the protease extracted solution required for an increase of 0.01 in optical density in 1 min at 280 nm.
(§2) The type of protease was determined as described by Mazorra-Manzano et al. (2013) with modification.Different protease inhibitors (8 mmol/L, 0.1 mL), a serine protease (phenylmethylsulfonyl fluoride, PMSF), a cysteine protease [transepoxy-succinylleucyl-amido-(4-guanidino)-butane, E-64], a metallo protease (EDTA), and an aspartic protease (pepstatin A), were added to 1 mL of the proteases. The mixtures were incubated at 37° C. for 30 min, then PA was evaluated. The percentage inhibition was calculated as follows:
(§3) percentage inhibition=100−[100−(residual activity/activity without inhibitor)].

The test system of series [2] is C. otophyllum protease QC. It counts as biochemical, Cynanchum otophyllum Schneid. The note with it: inhibitor 8 mmol/L, 37° C., 30 min. As for the experimental part: as §1, §2, §3
The subject of a further series is 12% skim milk. Kind of series: Milk clotting activity (MCA) assay, curd formation time. It counts as biochemical. To be noted: 12% skim milk in 10 mM CaCl2, pH 6.5, 37° C.; FIG. 5. As for the experimental part:
The MCA of the C. otophyllum proteases was determined using a modified method of He et al. (2011). One milliliter of substrate (12% skim milk in 10 mM CaCl2, pH 6.5) was incubated under 37° C. for 5 min, then 0.1 mL of the protease extracted solution was added. The time needed for curd formation was recorded and the MCA was expressed in Soxhlet units (SU). One SU of MCA was defined as the amount of the protease extracted solution required to clot 1 mL of substrate within 40 min at 37° C.
where V stands for the volume of the substrate (mL); v stands for the volume of the protease extract; and t stands for the milk-clotting time (s).
The C. otophyllum proteases were extracted as described by Huang et al. (2011) with some modifications. The C. otophyllum leaves were cut into pieces, mixed with a buffer at different solid-liquid ratios (i.e. ratio of mass to volume) for extraction, and then left for 2 h under 4° C., thus obtaining an extracted solution. After successive filtration through 4 layers of cheesecloth and a 0.22-μm membrane, the filtrate was concentrated by ultrafiltration with a 10-kDa molecular weight cut-off membrane at 8000 × g for 40 minutes at 4° C., with the retentate obtained as the concentrated solution of C. otophyllum proteases, which was assayed for protein concentration following the method of Bradford (1976) and curd formation time for 12% (w/v) skim milk.

In series [3] the test system is C. otophyllum protease QA. As to the kind of experiment: Effect of metal ions on milk-clotting activity. The note with it: metal ion 10 mmol/L added to 12% (w/v) skim milk containing 10 mmol/L CaCl2, pH 6.5. It counts as biochemical, Cynanchum otophyllum Schneid. The text has this: (§4) Some metal ions as a cofactor can participate in the milk-clotting reaction, thus affecting activity of enzyme. Further, the skim milk is of increased iron strength after addition of salts, thus interfering the stability of casein micelle and the formation of the milk clot. […] The reason of the promotion on milk coagulant activity and the decrease in milk-clotting time by the calcium ions is that they combines with exposed α-casein and β-casein during aggregation of the casein (i.e. the second step of the milk-clotting reaction), so as to promote formation of the milk clot. Further, it has been investigated that the calcium ions protect enzyme, especially those being poor resistant to temperature, and stabilizes the structure of enzyme, thus an amount of CaCl2 is often added to protect the structure of enzyme during cheese production, for increasing activity and speeding milk-clotting.

Series [4] has as its system C. otophyllum protease QC. As to the kind of experiment: Effect of metal ions on milk-clotting activity. It counts as biochemical, Cynanchum otophyllum Schneid. To be noted: metal ion 10 mmol/L added to 12% (w/v) skim milk containing 10 mmol/L CaCl2, pH 6.5.
Text: as §4

Square brackets hold non-standard residues; d marks the D form. Peptide text beside a SMILES is read from it. * marks the point of attachment. Sta = CC(C)C[C@H](N)[C@@H](O)CC(=O)O; Isovaleryl = CC(C)CC(=O)*

As for `O=S(=O)(F)Cc1ccccc1` [PMSF, phenylmethylsulfonyl fluoride], the “reduction in the activity of QA” value in series [1] (compared to the control) is recorded as “about 15%”. In addition, the “reduction in the activity of QC” value in series [2] (compared to the control) is given as “about 15%”. Turning to bromelain [reference compound], the “MCA (milk-clotting activity)” value in the series on 12% skim milk came to 222.2 SU/mg. Take lithium: the “effect on milk-clotting activity of QA” value in series [3] is listed as “no significant effect”. The “effect on milk-clotting activity of QC” value in series [4] is on record as “no significant effect”. On to `CC(C)C[C@H](NC(=O)[C@H]1O[C@@H]1C(=O)O)C(=O)NCCCCN=C(N)N` [E-64, transepoxy-succinylleucyl-amido-(4-guanidino)-butane], for which the “PA of QA in presence of inhibitor” value in series [1] (0.1 mL to 1 mL protease) was 20 % of the control. For the same molecule, in series [2] (0.1 mL to 1 mL protease), the “PA of QC in presence of inhibitor” value is on record as 20 % of the control.

On to zinc, for which the “effect on milk-clotting activity of QA” value in series [3] is reported as “significant inhibition”. Also, in series [4], the “effect on milk-clotting activity of QC” value was “significant inhibition”. Consider potassium, for which the “effect on milk-clotting activity of QA” value in series [3] is given as “no significant effect”. The “effect on milk-clotting activity of QC” value in series [4] was “no significant effect”.

Take copper: in series [3], the “effect on milk-clotting activity of QA” value was “significant inhibition”. Further, the “effect on milk-clotting activity of QC” value in series [4] is reported as “significant inhibition”.

On to `O=C(O)CN(CCN(CC(=O)O)CC(=O)O)CC(=O)O` [EDTA], for which, in series [1], the “effect on the PA of QA” value was “does not affect”. Further, in series [2], the “effect on the PA of QC” value was “does not affect”. With barium, the “effect on milk-clotting activity of QA” value in series [3] was “no significant effect”. The “effect on milk-clotting activity of QC” value in series [4] is “no significant effect”. For the molecule sodium, the “effect on milk-clotting activity of QA” value in series [3] is recorded as “no significant effect”. Moreover, in series [4], the “effect on milk-clotting activity of QC” value is reported as “no significant effect”. On to calcium, for which the “effect on milk-clotting activity of QA” value in series [3] is “significant increased effect”. In addition, the “effect on milk-clotting activity of QC” value in series [4] is given as “significant increased effect”. Take aluminium: the “effect on milk-clotting activity of QA” value in series [3] is “significant increased effect”. In series [4], the “effect on milk-clotting activity of QC” value is recorded as “significant increased effect”. Turning to `CC(C)CC(=O)N[C@H](C(=O)N[C@H](C(=O)N[C@@H](CC(C)C)[C@@H](O)CC(=O)N[C@@H](C)C(=O)N[C@@H](CC(C)C)[C@@H](O)CC(=O)O)C(C)C)C(C)C` [pepstatin A] (Isovaleryl-VV[Sta]A[Sta]-OH), in series [1], the “effect on the PA of QA” value is reported as “does not affect”. In series [2], the “effect on the PA of QC” value is “does not affect”. As to magnesium, in series [3], the “effect on milk-clotting activity of QA” value is reported as “no significant effect”. In addition, the “effect on milk-clotting activity of QC” value in series [4] is recorded as “no significant effect”.
